Results as given in US20020111274A1, “1-alkyl-3-[1-(substituted phenyl) benzotriazol-6-yl] uracils” (BASF Aktiengesellschaft, priority 2000, published 2002).

Columns and labels:
Parameters in all cases: scale not given here
ORYSAT Rice, Tebonnet [1] = experiment: Postemergence herbicidal evaluation, ORYSAT; type: in vivo, Oryza sativa, (L.); settings: postemergence spray, rated about two-three weeks after treatment
Summary of the method: (§1)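 Two-week-old seedlings sprayed postemergence with compound in 80/20 acetone/water plus 1.0% methylated seed oil, at about 0.006–0.400 kg/ha, through a nozzle at 40 psi. Plants kept under greenhouse conditions and visually rated about two–three weeks after treatment; ratings from repeat tests averaged.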

GLXMAW Soybean, Williams [2] = experiment: Preemergence herbicidal evaluation, GLXMAW; type: in vivo, Glycine max, (L.) Merr. cv Williams; settings: preemergence
Summary of the method: (§2)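 Compound applied preemergence as an aqueous acetone spray onto freshly planted cups, dose equivalent approx. 0.013 to 0.800 kg/ha. Evaluation by rating at weeks 4–5.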

[3] = test system: TRZAWR Wheat, Winter, cv Riband; experiment: Postemergence herbicidal evaluation, TRZAWR; type: in vivo, Triticum aestivum; settings: postemergence spray, rated about two-three weeks after treatment
Summary of the method: as §1

[4] = test system: CHEAL Lambsquarters, Common; experiment: Preemergence herbicidal evaluation, CHEAL; type: in vivo, Chenopodium album, L.; settings: preemergence
Summary of the method: as §2

ZEAMX Corn, Field [5] = experiment: Postemergence herbicidal evaluation, ZEAMX; type: in vivo, Zea mays, L. (Sammel-Bezeichnung); settings: postemergence spray, rated about two-three weeks after treatment
Summary of the method: as §1

CASOB Sicklepod [6] = experiment: Preemergence herbicidal evaluation, CASOB; type: in vivo, Cassia obtusifolia, L.; settings: preemergence
Summary of the method: as §2

[7] = test system: IPOHE Morningglory, Ivyleaf; experiment: Preemergence herbicidal evaluation, IPOHE; type: in vivo, Ipomoea hederacea, (L.) Jacq.; settings: preemergence
Summary of the method: as §2

ECHOG Barnyardgrass [8] = experiment: Postemergence herbicidal evaluation, ECHOG; type: in vivo, Echinochloa crus-galli, (L.) Beau; settings: postemergence spray, rated about two-three weeks after treatment
Summary of the method: as §1

SETVI Foxtail, Green [9] = experiment: Preemergence herbicidal evaluation, SETVI; type: in vivo, Setaria viridis, (L.) Beau; settings: preemergence
Summary of the method: as §2

GALAP Galium [10] = experiment: Preemergence herbicidal evaluation, GALAP; type: in vivo, Galium aparine; settings: preemergence
Summary of the method: as §2

GLXMAW Soybean, Williams [11] = experiment: Postemergence herbicidal evaluation, GLXMAW; type: in vivo, Glycine max, (L.) Merr. cv Williams; settings: postemergence spray, rated about two-three weeks after treatment
Summary of the method: as §1

[12] = test system: TRZAWR Wheat, Winter, cv Riband; experiment: Preemergence herbicidal evaluation, TRZAWR; type: in vivo, Triticum aestivum; settings: preemergence
Summary of the method: as §2

ABUTH Velvetleaf [13] = experiment: Preemergence herbicidal evaluation, ABUTH; type: in vivo, Abutilon theophrasti, Medic.; settings: preemergence
Summary of the method: as §2

CASOB Sicklepod [14] = experiment: Postemergence herbicidal evaluation, CASOB; type: in vivo, Cassia obtusifolia, L.; settings: postemergence spray, rated about two-three weeks after treatment
Summary of the method: as §1

AMBEL Ragweed, Common [15] = experiment: Preemergence herbicidal evaluation, AMBEL; type: in vivo, Ambrosia artemisifolia, L.; settings: preemergence
Summary of the method: as §2

ECHOG Barnyardgrass [16] = experiment: Preemergence herbicidal evaluation, ECHOG; type: in vivo, Echinochloa crus-galli, (L.) Beau; settings: preemergence
Summary of the method: as §2

GALAP Galium [17] = experiment: Postemergence herbicidal evaluation, GALAP; type: in vivo, Galium aparine; settings: postemergence spray, rated about two-three weeks after treatment
Summary of the method: as §1

SETVI Foxtail, Green [18] = experiment: Postemergence herbicidal evaluation, SETVI; type: in vivo, Setaria viridis, (L.) Beau; settings: postemergence spray, rated about two-three weeks after treatment
Summary of the method: as §1

AMBEL Ragweed, Common [19] = experiment: Postemergence herbicidal evaluation, AMBEL; type: in vivo, Ambrosia artemisifolia, L.; settings: postemergence spray, rated about two-three weeks after treatment
Summary of the method: as §1

ZEAMX Corn, Field [20] = experiment: Preemergence herbicidal evaluation, ZEAMX; type: in vivo, Zea mays, L. (Sammel-Bezeichnung); settings: preemergence
Summary of the method: as §2

[21] = test system: IPOHE Morningglory, Ivyleaf; experiment: Postemergence herbicidal evaluation, IPOHE; type: in vivo, Ipomoea hederacea, (L.) Jacq.; settings: postemergence spray, rated about two-three weeks after treatment
Summary of the method: as §1

ABUTH Velvetleaf [22] = experiment: Postemergence herbicidal evaluation, ABUTH; type: in vivo, Abutilon theophrasti, Medic.; settings: postemergence spray, rated about two-three weeks after treatment
Summary of the method: as §1

ORYSAT Rice, Tebonnet [23] = experiment: Preemergence herbicidal evaluation, ORYSAT; type: in vivo, Oryza sativa, (L.); settings: preemergence
Summary of the method: as §2

[24] = test system: CHEAL Lambsquarters, Common; experiment: Postemergence herbicidal evaluation, CHEAL; type: in vivo, Chenopodium album, L.; settings: postemergence spray, rated about two-three weeks after treatment
Summary of the method: as §1

## COC(=O)COc1ccccc1-n1nnc2cc(F)c(-n3c(=O)cc(C(F)(F)F)n(C)c3=O)cc21 [Example 35]
ORYSAT Rice, Tebonnet [1]; 0.008 kg/ha
  Postemergence herbicidal rating ORYSAT: 3.0
ORYSAT Rice, Tebonnet [1]; 0.016 kg/ha
  Postemergence herbicidal rating ORYSAT: 3.5
ORYSAT Rice, Tebonnet [1]; 0.032 kg/ha
  Postemergence herbicidal rating ORYSAT: 6.0
ORYSAT Rice, Tebonnet [1]; 0.062 kg/ha
  Postemergence herbicidal rating ORYSAT: 7.0
GLXMAW Soybean, Williams [2]; rate 0.016 kg/ha
  GLXMAW herbicidal rating: 1.0
GLXMAW Soybean, Williams [2]; rate 0.032 kg/ha
  GLXMAW herbicidal rating: 0.0
GLXMAW Soybean, Williams [2]; rate 0.062 kg/ha
  GLXMAW herbicidal rating: 1.5
GLXMAW Soybean, Williams [2]; rate 0.125 kg/ha
  GLXMAW herbicidal rating: 2.5
[3]; 0.008 kg/ha
  Postemergence herbicidal rating TRZAWR: 3.5
[3]; 0.016 kg/ha
  Postemergence herbicidal rating TRZAWR: 3.0
[3]; 0.032 kg/ha
  Postemergence herbicidal rating TRZAWR: 5.5
[3]; 0.062 kg/ha
  Postemergence herbicidal rating TRZAWR: 7.0
[4]; rate 0.016 kg/ha
  CHEAL herbicidal rating: 0.0
[4]; rate 0.032 kg/ha
  CHEAL herbicidal rating: 9.0
[4]; rate 0.062 kg/ha
  CHEAL herbicidal rating: 9.0
[4]; rate 0.125 kg/ha
  CHEAL herbicidal rating: 9.0
ZEAMX Corn, Field [5]; 0.008 kg/ha
  Postemergence herbicidal rating ZEAMX: 5.0
ZEAMX Corn, Field [5]; 0.016 kg/ha
  Postemergence herbicidal rating ZEAMX: 4.5
ZEAMX Corn, Field [5]; 0.032 kg/ha
  Postemergence herbicidal rating ZEAMX: 5.5
ZEAMX Corn, Field [5]; 0.062 kg/ha
  Postemergence herbicidal rating ZEAMX: 7.5
CASOB Sicklepod [6]; rate 0.016 kg/ha
  CASOB herbicidal rating: 0.0
CASOB Sicklepod [6]; rate 0.032 kg/ha
  CASOB herbicidal rating: 0.0
CASOB Sicklepod [6]; rate 0.062 kg/ha
  CASOB herbicidal rating: 4.0
CASOB Sicklepod [6]; rate 0.125 kg/ha
  CASOB herbicidal rating: 2.0
[7]; rate 0.016 kg/ha
  IPOHE herbicidal rating: 0.0
[7]; rate 0.032 kg/ha
  IPOHE herbicidal rating: 4.5
[7]; rate 0.062 kg/ha
  IPOHE herbicidal rating: 5.0
[7]; rate 0.125 kg/ha
  IPOHE herbicidal rating: 9.0
ECHOG Barnyardgrass [8]; 0.008 kg/ha
  Postemergence herbicidal rating ECHCG: 2.0
ECHOG Barnyardgrass [8]; 0.016 kg/ha
  Postemergence herbicidal rating ECHCG: 4.0
ECHOG Barnyardgrass [8]; 0.032 kg/ha
  Postemergence herbicidal rating ECHCG: 7.0
ECHOG Barnyardgrass [8]; 0.062 kg/ha
  Postemergence herbicidal rating ECHCG: 9.0
SETVI Foxtail, Green [9]; rate 0.016 kg/ha
  SETVI herbicidal rating: 0.0
SETVI Foxtail, Green [9]; rate 0.032 kg/ha
  SETVI herbicidal rating: 1.5
SETVI Foxtail, Green [9]; rate 0.062 kg/ha
  SETVI herbicidal rating: 6.5
SETVI Foxtail, Green [9]; rate 0.125 kg/ha
  SETVI herbicidal rating: 9.0
GALAP Galium [10]; rate 0.016 kg/ha
  GALAP herbicidal rating: 0.0
GALAP Galium [10]; rate 0.032 kg/ha
  GALAP herbicidal rating: 0.0
GALAP Galium [10]; rate 0.062 kg/ha
  GALAP herbicidal rating: 0.0
GALAP Galium [10]; rate 0.125 kg/ha
  GALAP herbicidal rating: 5.0
GLXMAW Soybean, Williams [11]; 0.008 kg/ha
  Postemergence herbicidal rating GLXMAW: 5.0
GLXMAW Soybean, Williams [11]; 0.016 kg/ha
  Postemergence herbicidal rating GLXMAW: 4.5
GLXMAW Soybean, Williams [11]; 0.032 kg/ha
  Postemergence herbicidal rating GLXMAW: 6.0
GLXMAW Soybean, Williams [11]; 0.062 kg/ha
  Postemergence herbicidal rating GLXMAW: 7.5
[12]; rate 0.016 kg/ha
  TRZAWR herbicidal rating: 0.0
[12]; rate 0.032 kg/ha
  TRZAWR herbicidal rating: 0.0
[12]; rate 0.062 kg/ha
  TRZAWR herbicidal rating: 1.0
[12]; rate 0.125 kg/ha
  TRZAWR herbicidal rating: 1.0
ABUTH Velvetleaf [13]; rate 0.016 kg/ha
  ABUTH herbicidal rating: 0.0
ABUTH Velvetleaf [13]; rate 0.032 kg/ha
  ABUTH herbicidal rating: 4.0
ABUTH Velvetleaf [13]; rate 0.062 kg/ha
  ABUTH herbicidal rating: 9.0
ABUTH Velvetleaf [13]; rate 0.125 kg/ha
  ABUTH herbicidal rating: 5.5
CASOB Sicklepod [14]; 0.008 kg/ha
  Postemergence herbicidal rating CASOB: 1.0
CASOB Sicklepod [14]; 0.016 kg/ha
  Postemergence herbicidal rating CASOB: 1.0
CASOB Sicklepod [14]; 0.032 kg/ha
  Postemergence herbicidal rating CASOB: 2.0
CASOB Sicklepod [14]; 0.062 kg/ha
  Postemergence herbicidal rating CASOB: 2.0
AMBEL Ragweed, Common [15]; rate 0.016 kg/ha
  AMBEL herbicidal rating: 0.0
AMBEL Ragweed, Common [15]; rate 0.032 kg/ha
  AMBEL herbicidal rating: 0.0
AMBEL Ragweed, Common [15]; rate 0.062 kg/ha
  AMBEL herbicidal rating: 3.5
AMBEL Ragweed, Common [15]; rate 0.125 kg/ha
  AMBEL herbicidal rating: 5.0
ECHOG Barnyardgrass [16]; rate 0.016 kg/ha
  ECHCG herbicidal rating: 0.0
ECHOG Barnyardgrass [16]; rate 0.032 kg/ha
  ECHCG herbicidal rating: 0.0
ECHOG Barnyardgrass [16]; rate 0.062 kg/ha
  ECHCG herbicidal rating: 2.0
ECHOG Barnyardgrass [16]; rate 0.125 kg/ha
  ECHCG herbicidal rating: 4.5
GALAP Galium [17]; 0.008 kg/ha
  Postemergence herbicidal rating GALAP: 1.0
GALAP Galium [17]; 0.016 kg/ha
  Postemergence herbicidal rating GALAP: 1.0
GALAP Galium [17]; 0.032 kg/ha
  Postemergence herbicidal rating GALAP: 3.0
GALAP Galium [17]; 0.062 kg/ha
  Postemergence herbicidal rating GALAP: 4.0
SETVI Foxtail, Green [18]; 0.008 kg/ha
  Postemergence herbicidal rating SETVI: 1.0
SETVI Foxtail, Green [18]; 0.016 kg/ha
  Postemergence herbicidal rating SETVI: 9.0
SETVI Foxtail, Green [18]; 0.032 kg/ha
  Postemergence herbicidal rating SETVI: 9.0
SETVI Foxtail, Green [18]; 0.062 kg/ha
  Postemergence herbicidal rating SETVI: 8.0
AMBEL Ragweed, Common [19]; 0.008 kg/ha
  Postemergence herbicidal rating AMBEL: 4.0
AMBEL Ragweed, Common [19]; 0.016 kg/ha
  Postemergence herbicidal rating AMBEL: 5.0
AMBEL Ragweed, Common [19]; 0.032 kg/ha
  Postemergence herbicidal rating AMBEL: 9.0
AMBEL Ragweed, Common [19]; 0.062 kg/ha
  Postemergence herbicidal rating AMBEL: 9.0
ZEAMX Corn, Field [20]; rate 0.016 kg/ha
  ZEAMX herbicidal rating: 0.0
ZEAMX Corn, Field [20]; rate 0.032 kg/ha
  ZEAMX herbicidal rating: 0.0
ZEAMX Corn, Field [20]; rate 0.062 kg/ha
  ZEAMX herbicidal rating: 1.0
ZEAMX Corn, Field [20]; rate 0.125 kg/ha
  ZEAMX herbicidal rating: 3.0
[21]; 0.008 kg/ha
  Postemergence herbicidal rating IPOHE: 9.0
[21]; 0.016 kg/ha
  Postemergence herbicidal rating IPOHE: 4.0
[21]; 0.032 kg/ha
  Postemergence herbicidal rating IPOHE: 9.0
[21]; 0.062 kg/ha
  Postemergence herbicidal rating IPOHE: 9.0
ABUTH Velvetleaf [22]; 0.008 kg/ha
  Postemergence herbicidal rating ABUTH: 5.0
ABUTH Velvetleaf [22]; 0.016 kg/ha
  Postemergence herbicidal rating ABUTH: 5.0
ABUTH Velvetleaf [22]; 0.032 kg/ha
  Postemergence herbicidal rating ABUTH: 9.0
ABUTH Velvetleaf [22]; 0.062 kg/ha
  Postemergence herbicidal rating ABUTH: 9.0
ORYSAT Rice, Tebonnet [23]; rate 0.016 kg/ha
  ORYSAT herbicidal rating: 0.0
ORYSAT Rice, Tebonnet [23]; rate 0.032 kg/ha
  ORYSAT herbicidal rating: 0.0
ORYSAT Rice, Tebonnet [23]; rate 0.062 kg/ha
  ORYSAT herbicidal rating: 3.5
ORYSAT Rice, Tebonnet [23]; rate 0.125 kg/ha
  ORYSAT herbicidal rating: 6.0
[24]; 0.008 kg/ha
  Postemergence herbicidal rating CHEAL: 1.0
[24]; 0.016 kg/ha
  Postemergence herbicidal rating CHEAL: 4.0
[24]; 0.032 kg/ha
  Postemergence herbicidal rating CHEAL: 6.0
[24]; 0.062 kg/ha
  Postemergence herbicidal rating CHEAL: 7.0
